Reference: ChEMBL document CHEMBL1909046, “DrugMatrix in vitro pharmacology data”

Legend:
[1] = target: Cytochrome P450 2D6 (Homo sapiens, UniProt P10635); conditions: bti-tn-5b1-4; also: in other assays of this panel Not Active means under 50% inhibition at 10 µM
[2] = target: Beta-2 adrenergic receptor (Homo sapiens, UniProt P07550); assay: DRUGMATRIX: Adrenergic beta2 radioligand binding (ligand: [3H] CGP-12177); type: cell membranes, CHO, Membrane; conditions: cho; Not Active = under 50% inhibition at 10 µM
[3] = target: Beta-3 adrenergic receptor (Homo sapiens, UniProt P13945); assay: DRUGMATRIX: Adrenergic beta3 radioligand binding (ligand: [125I] Cyanopindolol); type: cell membranes, HEK293, Membrane; conditions: hek293; Not Active = under 50% inhibition at 10 µM
[4] = DRUGMATRIX: Leukotriene, BLT (LTB4) radioligand binding (ligand: [3H]LTB4); type: cell membranes, Membrane; conditions: u-937; Not Active = under 50% inhibition at 10 µM
[5] = target: T1, Neuropeptide Y receptor type 1 (Homo sapiens, UniProt P25929); type: cell membranes, Membrane; conditions: sk-n-mc; also: in other assays of this panel Not Active means under 50% inhibition at 10 µM
T1 sequence (P25929 whole entry): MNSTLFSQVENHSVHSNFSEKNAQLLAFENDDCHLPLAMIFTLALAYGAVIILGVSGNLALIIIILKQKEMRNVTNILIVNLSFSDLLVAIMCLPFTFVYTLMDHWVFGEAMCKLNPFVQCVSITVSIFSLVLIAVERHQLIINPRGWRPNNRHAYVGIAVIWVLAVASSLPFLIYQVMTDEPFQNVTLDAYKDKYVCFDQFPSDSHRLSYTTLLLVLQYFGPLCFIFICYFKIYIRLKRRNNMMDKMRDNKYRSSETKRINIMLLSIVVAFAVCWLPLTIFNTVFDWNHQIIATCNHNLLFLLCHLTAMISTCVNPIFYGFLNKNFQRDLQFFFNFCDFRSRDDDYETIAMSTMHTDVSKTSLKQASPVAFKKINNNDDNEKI

[6] = target: T2, Neutrophil elastase (Homo sapiens, UniProt P08246); type: tissue-based;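 also: inhibition of neutrophil elastase enzyme activity, measured with a p-nitroanilide-linked peptide substrate; in other assays of this panel Not Active means under 50% inhibition at 10 µM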
T2 sequence (P08246 whole entry): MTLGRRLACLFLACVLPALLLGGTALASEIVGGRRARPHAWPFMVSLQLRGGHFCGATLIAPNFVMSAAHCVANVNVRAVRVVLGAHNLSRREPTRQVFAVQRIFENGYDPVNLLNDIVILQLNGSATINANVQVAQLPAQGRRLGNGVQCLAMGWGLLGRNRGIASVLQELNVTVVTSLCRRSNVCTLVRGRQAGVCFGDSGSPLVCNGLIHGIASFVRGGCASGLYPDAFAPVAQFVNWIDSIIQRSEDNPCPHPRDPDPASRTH

[7] = DRUGMATRIX: Interleukin IL-1 radioligand binding (ligand: [125I] interleukin 1beta); type: cell membranes, Membrane; conditions: nih3t3; Not Active = under 50% inhibition at 10 µM

Sequence of Beta-2 adrenergic receptor (P07550 whole entry): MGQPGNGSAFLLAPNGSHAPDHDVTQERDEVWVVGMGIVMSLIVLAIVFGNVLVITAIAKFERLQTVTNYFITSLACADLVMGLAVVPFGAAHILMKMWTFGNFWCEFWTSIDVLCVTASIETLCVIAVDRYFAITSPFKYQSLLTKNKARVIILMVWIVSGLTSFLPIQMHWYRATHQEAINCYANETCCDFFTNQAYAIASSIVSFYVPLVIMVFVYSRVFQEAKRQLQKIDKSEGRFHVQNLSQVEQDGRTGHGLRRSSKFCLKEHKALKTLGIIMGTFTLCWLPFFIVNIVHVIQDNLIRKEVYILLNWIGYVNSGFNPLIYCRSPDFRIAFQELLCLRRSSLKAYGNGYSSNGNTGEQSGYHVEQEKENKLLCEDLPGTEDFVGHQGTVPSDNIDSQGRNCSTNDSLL
Sequence of Beta-3 adrenergic receptor (P13945 whole entry): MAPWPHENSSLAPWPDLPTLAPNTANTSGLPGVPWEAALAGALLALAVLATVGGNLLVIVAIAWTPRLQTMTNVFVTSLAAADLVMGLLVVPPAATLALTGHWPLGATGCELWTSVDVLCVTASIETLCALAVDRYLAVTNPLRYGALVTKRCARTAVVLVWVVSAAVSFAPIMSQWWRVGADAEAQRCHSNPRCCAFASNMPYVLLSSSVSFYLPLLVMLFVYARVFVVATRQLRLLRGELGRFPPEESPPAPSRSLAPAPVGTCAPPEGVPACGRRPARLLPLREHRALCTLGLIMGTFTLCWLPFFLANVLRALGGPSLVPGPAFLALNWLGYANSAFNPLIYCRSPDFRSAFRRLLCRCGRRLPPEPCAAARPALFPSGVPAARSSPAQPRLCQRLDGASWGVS
Sequence of Cytochrome P450 2D6 (P10635 whole entry): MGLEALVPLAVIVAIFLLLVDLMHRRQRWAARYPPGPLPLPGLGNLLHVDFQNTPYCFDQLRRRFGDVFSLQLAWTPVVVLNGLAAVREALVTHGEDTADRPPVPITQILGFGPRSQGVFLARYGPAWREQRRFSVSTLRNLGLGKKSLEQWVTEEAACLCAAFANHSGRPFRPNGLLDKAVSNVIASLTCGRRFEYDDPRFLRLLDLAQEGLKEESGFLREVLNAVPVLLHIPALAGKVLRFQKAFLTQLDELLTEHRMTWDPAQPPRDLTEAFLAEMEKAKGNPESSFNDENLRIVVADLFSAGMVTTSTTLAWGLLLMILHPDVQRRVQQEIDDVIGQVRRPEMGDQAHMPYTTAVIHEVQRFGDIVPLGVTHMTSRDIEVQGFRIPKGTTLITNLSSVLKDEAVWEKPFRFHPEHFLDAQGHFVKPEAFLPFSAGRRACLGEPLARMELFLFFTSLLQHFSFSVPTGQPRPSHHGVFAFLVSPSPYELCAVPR

CC(=O)OCC(=O)[C@@]1(O)CC[C@H]2[C@@H]3CCC4=CC(=O)CC[C@]4(C)[C@@]3(F)[C@@H](O)C[C@@]21C [FLUDROCORTISONE ACETATE]
Not Active: IC50 [1] | Ki [1] | IC50 [2] | IC50 [3] | IC50 [4] | Ki [4] | IC50 [5] | IC50 [6] | IC50 [7] | Ki [7]

CCOC(=O)c1ncn2c1CN(C)C(=O)c1cc(F)ccc1-2 [FLUMAZENIL]
Not Active: IC50 [1] | Ki [1] | IC50 [2] | IC50 [3] | IC50 [4] | Ki [4] | IC50 [5] | IC50 [6] | IC50 [7] | Ki [7]

O=C(O)P(=O)(O)O [FOSCARNET]
Not Active: IC50 [1] | Ki [1] | IC50 [2] | IC50 [3] | IC50 [4] | Ki [4] | IC50 [5] | IC50 [6] | IC50 [7] | Ki [7]

Cc1ccc(C)c(OCCCC(C)(C)C(=O)O)c1 [GEMFIBROZIL]
Not Active: IC50 [1] | Ki [1] | IC50 [2] | IC50 [3] | IC50 [4] | Ki [4] | IC50 [5] | IC50 [6] | IC50 [7] | Ki [7]

O=c1c(-c2ccc(O)cc2)coc2cc(O)cc(O)c12 [GENISTEIN]
Not Active: IC50 [1] | Ki [1] | IC50 [2] | IC50 [3] | IC50 [4] | Ki [4] | IC50 [5] | IC50 [6] | IC50 [7] | Ki [7]

CCC1=C(C)CN(C(=O)NCCc2ccc(S(=O)(=O)NC(=O)N[C@H]3CC[C@H](C)CC3)cc2)C1=O [GLIMEPIRIDE]
Not Active: IC50 [1] | Ki [1] | IC50 [2] | IC50 [3] | IC50 [4] | Ki [4] | IC50 [5] | IC50 [6] | IC50 [7] | Ki [7]

Nc1cc(-c2ccncc2)c[nH]c1=O [INAMRINONE]
Not Active: IC50 [1] | Ki [1] | IC50 [2] | IC50 [3] | IC50 [4] | Ki [4] | IC50 [5] | IC50 [6] | IC50 [7] | Ki [7]

CCCCC1=NC2(CCCC2)C(=O)N1Cc1ccc(-c2ccccc2-c2nnn[nH]2)cc1 [IRBESARTAN]
Not Active: IC50 [1] | Ki [1] | IC50 [2] | IC50 [3] | IC50 [4] | Ki [4] | IC50 [5] | IC50 [6] | IC50 [7] | Ki [7]

CN1CCC(=C2c3ccccc3CC(=O)c3sccc32)CC1 [KETOTIFEN]
Not Active: IC50 [1] | Ki [1] | IC50 [2] | IC50 [3] | IC50 [4] | Ki [4] | IC50 [5] | IC50 [6] | IC50 [7] | Ki [7]

C[N+](C)(C)C[C@H](O)CC(=O)[O-] [LEVOCARNITINE]
Not Active: IC50 [1] | Ki [1] | IC50 [2] | IC50 [3] | IC50 [4] | Ki [4] | IC50 [5] | IC50 [6] | IC50 [7] | Ki [7]

C[C@H]1COc2c(N3CCN(C)CC3)c(F)cc3c(=O)c(C(=O)O)cn1c23.C[C@H]1COc2c(N3CCN(C)CC3)c(F)cc3c(=O)c(C(=O)O)cn1c23.O [LEVOFLOXACIN]
Not Active: IC50 [1] | Ki [1] | IC50 [2] | IC50 [3] | IC50 [4] | Ki [4] | IC50 [5] | IC50 [6] | IC50 [7] | Ki [7]

CCn1cc(C(=O)O)c(=O)c2cc(F)c(N3CCNC(C)C3)c(F)c21 (stereo not given) [LOMEFLOXACIN]
Not Active: IC50 [1] | Ki [1] | IC50 [2] | IC50 [3] | IC50 [4] | Ki [4] | IC50 [5] | IC50 [6] | IC50 [7] | Ki [7]

CN1CCCC(CN2c3ccccc3Sc3ccccc32)C1 (stereo not given) [MEPAZINE]
Not Active: IC50 [1] | Ki [1] | IC50 [2] | IC50 [3] | IC50 [4] | Ki [4] | IC50 [5] | IC50 [6] | IC50 [7] | Ki [7]

Cc1cccc(C)c1NC(=O)C1CCCCN1C (stereo not given) [MEPIVACAINE]
Not Active: IC50 [1] | Ki [1] | IC50 [2] | IC50 [3] | IC50 [4] | Ki [4] | IC50 [5] | IC50 [6] | IC50 [7] | Ki [7]

CN(C)C(=N)NC(=N)N [METFORMIN]
Not Active: IC50 [1] | Ki [1] | IC50 [2] | IC50 [3] | IC50 [4] | Ki [4] | IC50 [5] | IC50 [6] | IC50 [7] | Ki [7]

CC(C)(C)NCC(O)COc1cccc2c1CC(O)C(O)C2 (stereo not given) [NADOLOL]
Not Active: IC50 [1] | Ki [1] | IC50 [2] | IC50 [3] | IC50 [4] | Ki [4] | IC50 [5] | IC50 [6] | IC50 [7] | Ki [7]

C[C@]12CC[C@H]3[C@@H](CCC4=CC(=O)CC[C@@H]43)[C@@H]1CC[C@@H]2O [NANDROLONE]
Not Active: IC50 [1] | Ki [1] | IC50 [2] | IC50 [3] | IC50 [4] | Ki [4] | IC50 [5] | IC50 [6] | IC50 [7] | Ki [7]

CN(C)C(=O)Oc1cccc([N+](C)(C)C)c1.[Br-] [NEOSTIGMINE BROMIDE]
Not Active: IC50 [1] | Ki [1] | IC50 [2] | IC50 [3] | IC50 [4] | Ki [4] | IC50 [5] | IC50 [6] | IC50 [7] | Ki [7]

NC(=O)c1cccnc1 [NIACINAMIDE]
Not Active: IC50 [1] | Ki [1] | IC50 [2] | IC50 [3] | IC50 [4] | Ki [4] | IC50 [5] | IC50 [6] | IC50 [7] | Ki [7]

CS(=O)(=O)Nc1ccc([N+](=O)[O-])cc1Oc1ccccc1 [NIMESULIDE]
Not Active: IC50 [1] | Ki [1] | IC50 [2] | IC50 [3] | IC50 [4] | Ki [4] | IC50 [5] | IC50 [6] | IC50 [7] | Ki [7]

CN1C(=O)CN=C(c2ccccc2)c2cc([N+](=O)[O-])ccc21 [NIMETAZEPAM]
Not Active: IC50 [1] | Ki [1] | IC50 [2] | IC50 [3] | IC50 [4] | Ki [4] | IC50 [5] | IC50 [6] | IC50 [7] | Ki [7]

COc1ccc2c(c1OC)C(=O)O[C@@H]2[C@H]1c2c(cc3c(c2OC)OCO3)CCN1C [NOSCAPINE]
Not Active: IC50 [1] | Ki [1] | IC50 [2] | IC50 [3] | IC50 [4] | Ki [4] | IC50 [5] | IC50 [6] | IC50 [7] | Ki [7]

C[C@@H]1O[C@@H](O[C@H]2C[C@@H](O)[C@]3(CO)[C@H]4[C@H](O)C[C@]5(C)[C@@H](C6=CC(=O)OC6)CC[C@]5(O)[C@@H]4CC[C@]3(O)C2)[C@H](O)[C@H](O)[C@H]1O [OUABAIN]
Not Active: IC50 [1] | Ki [1] | IC50 [2] | IC50 [3] | IC50 [4] | Ki [4] | IC50 [5] | IC50 [6] | IC50 [7] | Ki [7]

NC(=O)N1c2ccccc2CC(=O)c2ccccc21 [OXCARBAZEPINE]
Not Active: IC50 [1] | Ki [1] | IC50 [2] | IC50 [3] | IC50 [4] | Ki [4] | IC50 [5] | IC50 [6] | IC50 [7] | Ki [7]

COc1ccnc(C[S+]([O-])c2nc3ccc(OC(F)F)cc3[nH]2)c1OC (stereo not given) [PANTOPRAZOLE]
Not Active: IC50 [1] | Ki [1] | IC50 [2] | IC50 [3] | IC50 [4] | Ki [4] | IC50 [5] | IC50 [6] | IC50 [7] | Ki [7]
